The values that follow come from US9907847B2, “Pyrrolopyrimidines as therapeutic agents for the treatment of diseases” (GlaxoSmithKline LLC, priority 2012, dated 2018).

Each structure is given as a SMILES string. Where a name gives a salt, the structure may show the parent alone. Bounds are passed on as bounds.

One assay concerns IFN-α. Briefly: Induction of interferon-α using fresh human whole blood (WB). The class given is cell-based. As to conditions: three donors, overnight incubation, response as % of 2 μM resiquimod control, read-out: mean pEC50 for IFN-α (converted). The protocol:
(§1) Assay for the Induction of Interferon-[…] and TNF-[…] Using Fresh Human Whole Blood (WB)
(§2) Compounds were prepared at 100× required concentration in DMSO in flat-bottom microtitre plates at a volume of 1.5 μL. Columns 1-10 contained a 1 in 4 serial dilution of the test compound. Included on each plate was a serial dilution of the TLR7/8 agonist resiquimod as a standard and Column 11 contained 1.5 μl of 200 μM resiquimod (giving a 2 μM final concentration, used to define the approximate maximal response to resiquimod). Each compound was assayed in duplicate for each donor.
(§3) Blood samples from three human donors were collected into sodium heparin (10 U/ml). 150 μl of whole Blood was dispensed into Col 1 to 11 of assay plates containing 1.5 μl of test compound or standard in DMSO. Plates were placed in an incubator overnight (37° C., 95% air, 5% CO2). Following the overnight incubation, plates were removed from the incubator & mixed on an orbital shaker for approximately 1 minute. 100 μl of 0.9% saline was added to each well and the plates mixed again on an orbital shaker. Plates were then centrifuged (2500 rpm, 10 mins), after which a sample of plasma was removed using a Biomek FX and assayed for both IFN-α and TNF-α using the MSD (Mesoscale Discovery) electrochemiluminescence assay platform. The IFN-α assay was carried out similarly to that described above. The TNF-α assay was carried out as per kit instructions (Cat No K111BHB).
(§4) Cytokine released was expressed as a percentage of the 2 μM resiquimod control (column 11). This percentage was plotted against compound concentration and the pEC50 for the response determined by non-linear least squares curve fitting. For the IFN-α responses, generally a 4 parameter logistic model was selected. For the TNF-α responses where a clear maximum response was obtained (i.e. a well defined plateau in the response was observed) then a 4 parameter model was generally used. If the upper asymptote of the curve wasn't well defined then the curve fitting was generally constrained to a maximal response of 100% (i.e. to the response to 2 μM resiquimod) or to the response of the highest concentration tested if this was greater than the resiquimod response. Some curves were bell shaped for one or both cytokines and the cytokine data on the down slope of the bell shaped response (i.e. concentrations above those giving the maximal response) were generally excluded from the fit, usually with the exception of the concentration immediately above the peak response. Curve fitting thus concentrated on the up slope of the dose response curve.

Another assay concerns TNF-α. As to the kind of experiment: Induction of TNF-α using fresh human whole blood (WB). The class given is cell-based. As to conditions: three donors, overnight incubation, response as % of 2 μM resiquimod control, read-out: mean pEC50 for TNF-α (converted). The method, then:
as §1, §2, §3, §4

Regarding `CCCCc1nc(N)c2[nH]c(C)c(CCCCN3CCCCCC3)c2n1` [Example 13, 7-(4-(Azepan-1-yl)butyl)-2-butyl-6-methyl-5H-pyrrolo[3,2-d]pyrimidin-4-amine], the EC50 is at most 5.01 µM in the assay on IFN-α and at least 5.01 µM in the assay with TNF-α.

Consider `COCCc1nc(N)c2[nH]cc(CCCCCCN3CCCCC3)c2n1` [Example 5, 2-(2-Methoxyethyl)-7-(6-(piperidin-1-yl)hexyl)-5H-pyrrolo[3,2-d]pyrimidin-4-amine hydrochloride], for which the EC50 in the assay on IFN-α was at most 5.01 µM; in the assay with TNF-α, at least 5.01 µM.

Regarding `CCCCc1nc(N)c2[nH]c(C)c(CCCCN3CCCC3)c2n1` [Example 19, 2-Butyl-6-methyl-7-(4-(pyrrolidin-1-yl)butyl)-5H-pyrrolo[3,2-d]pyrimidin-4-amine], the EC50 in the assay with IFN-α was at most 5.01 µM; with TNF-α, at least 5.01 µM.

With `CCCCc1nc(N)c2[nH]cc(CCCCCN3CC(F)C3)c2n1` [Example 37, 2-Butyl-7-(5-(3-fluoroazetidin-1-yl)pentyl)-5H-pyrrolo[3,2-d]pyrimidin-4-amine], the values for the EC50 in the assay on IFN-α and in the assay on TNF-α were at most 5.01 µM and at least 5.01 µM, respectively.

In the case of `CCCCc1nc(N)c2[nH]cc(CCCCCN3CCC(F)(F)CC3)c2n1` [Example 20, 2-Butyl-7-(5-(4,4-difluoropiperidin-1-yl)pentyl)-5H-pyrrolo[3,2-d]pyrimidin-4-amine], the EC50 with IFN-α is at most 5.01 µM; with TNF-α, at least 5.01 µM.

`CCCCc1nc(N)c2[nH]c(C)c(CCCCCN3CC[C@H](F)C3)c2n1` [Example 40, (S)-2-Butyl-7-(5-(3-fluoropyrrolidin-1-yl)pentyl)-6-methyl-5H-pyrrolo[3,2-d]pyrimidin-4-amine]: the EC50 was at most 5.01 µM with IFN-α and at least 5.01 µM in the assay on TNF-α.

With `CCCCc1nc(N)c2[nH]cc(CCCCCN3CC(C)C3)c2n1` [Example 36, 2-Butyl-7-(5-(3-methylazetidin-1-yl)pentyl)-5H-pyrrolo[3,2-d]pyrimidin-4-amine], the EC50 in the assay on IFN-α is at most 5.01 µM; with TNF-α, at least 5.01 µM.

As for `CCCCc1nc(N)c2[nH]c(C)c(CCCCCN3CCC(F)CC3)c2n1` [Example 39, 2-Butyl-7-(5-(4-fluoropiperidin-1-yl)pentyl)-6-methyl-5H-pyrrolo[3,2-d]pyrimidin-4-amine], the values for the EC50 in the assay with IFN-α and in the assay with TNF-α were at most 5.01 µM and at least 5.01 µM, respectively.

For `CCCCc1nc(N)c2[nH]cc(CCCCCCN3CC[C@H](F)C3)c2n1` [Example 33, (S)-2-Butyl-7-(6-(3-fluoropyrrolidin-1-yl)hexyl)-5H-pyrrolo[3,2-d]pyrimidin-4-amine], the results for the EC50 in the assay with IFN-α and with TNF-α were at most 5.01 µM and at least 5.01 µM, respectively.

With `CCCCc1nc(N)c2[nH]cc(CCCCCN3CC[C@H](F)C3)c2n1` [Example 25, (S)-2-Butyl-7-(5-(3-fluoropyrrolidin-1-yl)pentyl)-5H-pyrrolo[3,2-d]pyrimidin-4-amine], the EC50 in the assay with IFN-α is at most 5.01 µM; in the assay on TNF-α, at least 5.01 µM.

For the compound `CCCCc1nc(N)c2[nH]cc(CCCCCN3CCC[C@H]3C)c2n1` [Example 35, (R)-2-Butyl-7-(5-(2-methylpyrrolidin-1-yl)pentyl)-5H-pyrrolo[3,2-d]pyrimidin-4-amine], the EC50 in the assay on IFN-α was at most 5.01 µM; with TNF-α, at least 5.01 µM.

As to `COCCc1nc(N)c2[nH]cc(CCCCCCN3CCCCCC3)c2n1` [Example 30, 7-(6-(Azepan-1-yl)hexyl)-2-(2-methoxyethyl)-5H-pyrrolo[3,2-d]pyrimidin-4-amine], the EC50 in the assay on IFN-α is at most 5.01 µM; in the assay with TNF-α, at least 5.01 µM.
